The results in this text go back to ChEMBL document CHEMBL1129195, “New antithrombotic RGD-mimetics with high bioavailability” (1996).

As usually defined, the ED50 is the dose that gives a 50% effect, or the effect in half of the subjects.

In assay [1] the test system is Cavia porcellus. Nature of the assay: Ex vivo inhibition of collagen-induced platelet aggregation in guinea pig after p.o. administration.
Assay [2] deals with Monkey. Put plainly: Ex vivo inhibition of collagen-induced platelet aggregation in cynomolgus monkey after p.o. administration. The assay is classed as functional. The conditions noted are these: Cercopithecidae, in Macaca fascicularis, po.
Assay [3] has as its system Cavia porcellus. Put plainly: Ex vivo inhibition of collagen-induced platelet aggregation in guinea pig after i.v. administration. It counts as functional. The conditions noted are these: iv.
The subject of assay [4] is Monkey. Put plainly: Ex vivo inhibition of collagen-induced platelet aggregation in cynomolgus monkey after i.v. administration. It counts as functional. The conditions noted are these: Cercopithecidae, in Macaca fascicularis, iv.

SMILES strings stand for the structures.

Consider `N/C(=N/C(=O)c1ccccc1)c1ccc(N2C[C@@H](CN3CCN(CC(=O)O)CC3)OC2=O)cc1`, for which the ED50 in the assay on Cavia porcellus [1] is greater than 10 mg/kg.
Consider `CCOC(=O)CN1CCN(CC2CN(c3ccc(C(=N)NC(=O)c4ccco4)cc3)C(=O)O2)CC1` (configuration not stated), for which the ED50 with Monkey [2] is greater than 1 mg/kg; in the assay on Cavia porcellus [1], less than 1 mg/kg.
Turning to `CCOC(=O)CN1CCN(CC2CN(c3ccc(C(=N)NC(=O)OC)cc3)C(=O)O2)CC1` (configuration not stated), the ED50 in the assay with Cavia porcellus [3] and in the assay with Cavia porcellus [1] was 0.4 mg/kg each time.
On to `CCOC(=O)CN1CCN(C[C@@H]2CN(c3ccc(C(=N)NC(=O)c4ccccc4)cc3)C(=O)O2)CC1`, for which the 50% effective dose (ED50) in the assay on Monkey [2] turned out to be 1.3 mg/kg; in the assay on Monkey [4] it was 0.13 mg/kg; with Cavia porcellus [3], 0.09 mg/kg; in the assay with Cavia porcellus [1], 0.32 mg/kg.
On to `CCOC(=O)CN1CCN(C[C@@H]2CN(c3ccc(C(=N)NC(=O)OCC)cc3)C(=O)O2)CC1`, for which the values for the ED50 in the assay with Monkey [2] and in the assay with Cavia porcellus [1] were 0.7 mg/kg and 0.17 mg/kg, respectively.
`CCOC(=O)C1CCN(CC2CN(c3ccc(C(=N)NC(=O)c4ccccc4)cc3)C(=O)O2)CC1` (configuration not stated) came in with a 50% effective dose (ED50) with Cavia porcellus [1] of 10 mg/kg.
In the assay on Cavia porcellus [1], `CCOC(=O)CC1(O)CCN(CC2CN(c3ccc(C(=N)NC(=O)c4ccccc4)cc3)C(=O)O2)CC1` (configuration not stated) had an ED50 of 3 mg/kg.
In the case of `CCOC(=O)CN1CCN(C[C@@H]2CN(c3ccc(C(=N)N)cc3)C(=O)O2)CC1`, the median effective dose (ED50) was 0.08 mg/kg in the assay on Cavia porcellus [3] and greater than 1 mg/kg in the assay on Cavia porcellus [1].
In the assay on Cavia porcellus [1], `CCOC(=O)CCN1CCN(C[C@@H]2CN(c3ccc(C(=N)NC(=O)c4ccccc4)cc3)C(=O)O2)CC1` registered an ED50 greater than 1 mg/kg.
For the compound `CCOC(=O)CN1CCN(CC2CN(c3ccc(C(=N)NC(=O)c4cccnc4)cc3)C(=O)O2)CC1` (configuration not stated), it took a dose of 1 mg/kg to reach the 50% effect level in the assay with Cavia porcellus [3] (ED50).
Turning to `CCOC(=O)CN1CCN(C[C@@H]2CN(c3ccc(C(=N)NC(=O)c4cccc(C(F)(F)F)c4)cc3)C(=O)O2)CC1`, the ED50 in the assay on Monkey [2] was greater than 1 mg/kg; in the assay with Cavia porcellus [1] it was less than 1 mg/kg.
In the assay on Cavia porcellus [1], `CCOC(=O)CC1CCN(CC2CN(c3ccc(C(=N)NC(=O)c4ccccc4)cc3)C(=O)O2)CC1` (configuration not stated) yielded an ED50 of 3 mg/kg.
For the compound `CC(=O)O/N=C(/N)c1ccc(N2C[C@@H](CN3CCN(CC(=O)O)CC3)OC2=O)cc1`, the ED50 with Cavia porcellus [1] is greater than 10 mg/kg.
`CCOC(=O)CCN1CCN(C[C@H]2CN(c3ccc(C(=N)NC(=O)c4ccccc4)cc3)C(=O)O2)CC1` showed a 50% effective dose (ED50) with Cavia porcellus [1] greater than 10 mg/kg.
Still for that read-out and setting: the same measure for `CCOC(=O)CN1CCN(CC2CN(c3ccc(C(=N)NC(=O)Oc4ccccc4)cc3)C(=O)O2)CC1` (configuration not stated): 0.2 mg/kg.
Same read-out and setting: the same measure for `COC(=O)/N=C(/N)c1ccc(N2CC(CN3CCN(CC(=O)OC(C)(C)C)CC3)OC2=O)cc1` (configuration not stated): greater than 1 mg/kg; for `CC(C)(C)OC(=O)CCN1CCN(CC2CN(c3ccc(C(=N)NC(=O)c4ccccc4)cc3)C(=O)O2)CC1` (configuration not stated): greater than 10 mg/kg.
In the case of `CCOC(=O)CN1CCN(C[C@@H]2CN(c3ccc(C(=N)NC(=O)OC)cc3)C(=O)O2)CC1` [GANTOFIBAN], the figures for the 50% effective dose (ED50) with Monkey [2], in the assay with Monkey [4] and in the assay on Cavia porcellus [1] were 0.07 mg/kg, 0.5 mg/kg and 0.2 mg/kg, respectively.
In the assay with Cavia porcellus [1], `CCOC(=O)CCN1CCN(CC2CN(c3ccc(C(=N)NC(=O)OC)cc3)C(=O)O2)CC1` (configuration not stated) registered an ED50 greater than 10 mg/kg.
Turning to `CCOC(=O)CN1CCN(C[C@@H]2CN(c3ccc(C(=N)NC(=O)c4ccc(OC)cc4)cc3)C(=O)O2)CC1`, the ED50 is greater than 1 mg/kg with Monkey [2] and less than 1 mg/kg with Cavia porcellus [1].
In the assay with Cavia porcellus [1], `CCOC(=O)CN1CCN(C[C@H]2CN(c3ccc(C(=N)NC(=O)c4ccccc4)cc3)C(=O)O2)CC1` yielded a median effective dose (ED50) greater than 1 mg/kg.
Consider `CCOC(=O)CN1CCN(C[C@@H]2CN(c3ccc(C(=N)NC(=O)OCc4ccccc4)cc3)C(=O)O2)CC1`, for which the ED50 in the assay with Monkey [2] is greater than 1 mg/kg; in the assay on Cavia porcellus [1], less than 1 mg/kg.
Consider `CC(C)(C)OC(=O)CN1CCN(C[C@@H]2CN(c3ccc(C(=N)N)cc3)C(=O)O2)CC1`, for which the ED50 in the assay with Cavia porcellus [3] was 1 mg/kg.
As to `CCOC(=O)CN1CCN(C[C@@H]2CN(c3ccc(C(=N)NC(=O)C(C)C)cc3)C(=O)O2)CC1`, the figures for the ED50 in the assay with Monkey [2] and with Cavia porcellus [1] were 1.3 mg/kg and 0.4 mg/kg, respectively.
For `COC(=O)CN1CCN(C[C@@H]2CN(c3ccc(C(=N)NC(=O)OC)cc3)C(=O)O2)CC1`, in that order: 0.8 mg/kg and 0.1 mg/kg.
`CC(C)(C)OC(=O)CN1CCN(C[C@@H]2CN(c3ccc(C(=N)NC(=O)c4ccccc4)cc3)C(=O)O2)CC1`: the values for the ED50 in the assay with Monkey [2], with Cavia porcellus [3] and in the assay on Cavia porcellus [1] were greater than 1 mg/kg, 0.4 mg/kg and 1 mg/kg, respectively.
